Results on ten molecules are retold here after ChEMBL document CHEMBL4402507, “Tyrosinase inhibitory study of flavonolignans from the seeds of Silybum marianum (Milk thistle)” (Bioorg Med Chem, 2019).

The structures appear in SMILES notation. The source made the active and inactive calls. No cut-off for these calls is given here.

Test [1] concerns the target T1, Tyrosinase (Agaricus bisporus, UniProt O42713).
T1 sequence (O42713 whole entry): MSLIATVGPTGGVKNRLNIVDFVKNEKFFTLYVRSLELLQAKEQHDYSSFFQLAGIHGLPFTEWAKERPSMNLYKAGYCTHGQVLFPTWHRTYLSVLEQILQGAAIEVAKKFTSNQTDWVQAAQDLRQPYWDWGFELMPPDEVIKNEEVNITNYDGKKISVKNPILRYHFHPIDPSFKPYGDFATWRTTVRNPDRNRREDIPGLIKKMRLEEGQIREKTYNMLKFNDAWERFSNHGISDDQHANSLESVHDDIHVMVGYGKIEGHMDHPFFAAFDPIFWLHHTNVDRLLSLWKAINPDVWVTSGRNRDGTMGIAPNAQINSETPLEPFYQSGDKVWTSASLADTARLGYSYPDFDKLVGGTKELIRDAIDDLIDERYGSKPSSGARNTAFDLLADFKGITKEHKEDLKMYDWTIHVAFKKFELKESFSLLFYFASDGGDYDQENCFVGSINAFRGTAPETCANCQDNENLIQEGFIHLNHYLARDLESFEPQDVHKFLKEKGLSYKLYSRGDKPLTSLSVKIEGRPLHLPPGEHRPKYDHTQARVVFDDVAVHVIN
In words: Inhibition of monophenolase activity of mushroom tyrosinase assessed as reduction in dopachrome formation using L-Tyrosine substrate by UV-Vis spectrophotometry.

The target of test [2] is T1, Tyrosinase.
Description: Inhibition of monophenolase activity of mushroom tyrosinase assessed as inhibition constant for free enzyme-inhibitor complex by measuring reduction in dopachrome formation using L-Tyrosine substrate by UV-Vis spectrophotometry
Test [3] deals with T2, Tyrosinase (Agaricus bisporus) (UniProt O42713).
T2 sequence (whole entry): T1 sequence (O42713 whole entry)
In words: Inhibition of monophenolase activity of mushroom tyrosinase assessed as increase in lag period of monophenolase for oxidation of L-tyrosine substrate at 0.5 to 16 uM by UV-Vis spectrophotometry.

For test [4], the target named is T1, Tyrosinase. This is another data set of the same source.
For test [5], the target named is T2, Tyrosinase (Agaricus bisporus). The test can be described thus: Binding affinity to mushroom tyrosinase assessed as binding constant by fluorescence spectrophotometry.
Test [6] has the same target. The test can be described thus: Inhibition of monophenolase activity of mushroom tyrosinase assessed as reduction in steady state rate monophenolase activity for oxidation of L-tyrosine substrate at 0.5 to 16 uM by UV-Vis spectrophotometry.
Test [7] has the same target.
Description: Inhibition of diphenolase activity of mushroom tyrosinase assessed as inhibition constant for enzyme-substrate-inhibitor complex by measuring reduction in dopachrome formation using L-DOPA substrate by UV-Vis spectrophotometry
Test [8] shares this target. The test can be described thus: Binding affinity to mushroom tyrosinase assessed as Stern-Volmer quenching constant by fluorescence spectrophotometry.
Test [9] concerns the target T1, Tyrosinase. The source holds these as a separate data set.
Description: Mixed type inhibition of diphenolase activity of mushroom tyrosinase assessed as reduction in dopachrome formation using L-DOPA substrate by UV-Vis spectrophotometry based Dixon plot analysis
In test [10] the target is T2, Tyrosinase (Agaricus bisporus). This is another data set of the same source.
Description: Inhibition of monophenolase activity of mushroom tyrosinase assessed as inhibition constant for enzyme-substrate-inhibitor complex by measuring reduction in dopachrome formation using L-Tyrosine substrate by UV-Vis spectrophotometry
The target of test [11] is T1, Tyrosinase. In words: Inhibition of diphenolase activity of mushroom tyrosinase assessed as reduction in dopachrome formation using L-DOPA substrate by UV-Vis spectrophotometry.
Test [12] deals with T1, Tyrosinase. This is another data set of the same source.
Description: Inhibition of diphenolase activity of mushroom tyrosinase assessed as inhibition constant for free enzyme-inhibitor complex by measuring reduction in dopachrome formation using L-DOPA substrate by UV-Vis spectrophotometry
The target in test [13] is T2, Tyrosinase (Agaricus bisporus). The test can be described thus: Binding affinity to mushroom tyrosinase by fluorescence spectrophotometry.
In test [14] the target is T1, Tyrosinase. This is another data set of the same source.
Description: Competitive type inhibition of monophenolase activity of mushroom tyrosinase assessed as reduction in dopachrome formation using L-Tyrosine substrate by UV-Vis spectrophotometry based Dixon plot analysis
In test [15] the target is T2, Tyrosinase (Agaricus bisporus). In words: Inhibition of monophenolase activity of mushroom tyrosinase assessed as lag time period of monophenolase for oxidation of L-tyrosine substrate at 16 uM by UV-Vis spectrophotometry (reference value: […] secs).
Test [16] has the same target. The test can be described thus: Inhibition of monophenolase activity of mushroom tyrosinase assessed as reduction in N-acetyl-L-dopaquinone formation at 25 uM using N-acetyl-L-tyrosine substrate incubated up to 60 mins by HPLC analysis.
Test [17] addresses T1, Tyrosinase. This is another data set of the same source.
Description: Competitive type inhibition of diphenolase activity of mushroom tyrosinase assessed as reduction in dopachrome formation using L-DOPA substrate by UV-Vis spectrophotometry based Dixon plot analysis

On to `COc1cc([C@@H]2Oc3c(O)cc([C@H]4Oc5cc(O)cc(O)c5C(=O)[C@@H]4O)cc3[C@H]2CO)ccc1O` [SILICRISTIN A], for which the results for the half-maximal inhibitory concentration (IC50) in test [1] and in [11] were 3.2 µM and 28.8 µM, respectively. Moreover, the Ki in test [2] stood at 2.1 µM; in test [4] it was 2.1 µM; in [9], 15.4 µM; in test [12], 15.2 µM. For the same molecule, the inhibition result in test [3] and in test [6] was “Dose-dependent effect” in each case. For the same molecule, the KA in [5] is 3.55 ×10⁶ L/mol. Further, the Kis in [7] was found to be 37.3 µM; in test [10], 2.9 µM. The KSV in [8] stood at 0.192 ×10⁴ L/mol.
On to `COc1cc([C@H]2Oc3c(O)cc([C@H]4Oc5cc(O)cc(O)c5C(=O)[C@@H]4O)cc3[C@@H]2CO)ccc1O` [SILICRISTIN B], for which the IC50 in test [1] stood at 4.5 µM; in test [11], 44.9 µM. Further, the Ki in test [2] amounted to 2.8 µM; in test [4], 2.8 µM; in test [9] it was 35.5 µM; in test [12], 34.7 µM. Besides, the inhibition result in test [3] and in [6] was “Dose-dependent effect” in each case. The KA in test [5] is 2.88 ×10⁶ L/mol. Also, the Kis in test [7] was found to be 91.3 µM; in test [10], 14 µM. Also, in test [8], the KSV worked out at 0.109 ×10⁴ L/mol.
As for `O=C1c2c(O)cc(O)cc2O[C@H](c2ccc(O)cc2)[C@H]1O` [DIHYDROKAEMPFEROL], the IC50 in test [1] is 73.6 µM; in [11], more than 200 µM. Further, the KA in test [5] came to 0.094 ×10⁶ L/mol. In addition, the Activity result in test [13] was “Dose-dependent effect”. In addition, the KSV in [8] is 0.0199 ×10⁴ L/mol. The Ki in test [14] was found to be 42 µM.
For `COc1cc([C@@H]2Oc3ccc([C@H]4Oc5cc(O)cc(O)c5C(=O)[C@@H]4O)cc3O[C@H]2CO)ccc1O` [ISOSILYBIN B], the IC50 in test [1] came to 4.9 µM; in test [11], 19.8 µM. Moreover, the Ki in [2] is 4.3 µM; in test [4] it was 4.2 µM; in test [9], 11.6 µM; in [12] it was 12.7 µM. In addition, the inhibition entry in [3] and in test [6] was “Dose-dependent effect” throughout. Besides, the KA in test [5] is 2.42 ×10⁶ L/mol. For the same molecule, the Kis in [7] is 25.2 µM; in test [10], 8 µM. Also, the KSV in [8] was found to be 0.0882 ×10⁴ L/mol.
Take `O=C1c2c(O)cc(O)cc2O[C@H](c2ccc(O)c(O)c2)[C@H]1O`: the KA in test [5] amounted to 0.918 ×10⁶ L/mol. In test [8], the KSV was 0.0492 ×10⁴ L/mol.
Take `COc1cc(C2Oc3cc([C@H]4Oc5cc(O)cc(O)c5C(=O)[C@@H]4O)ccc3OC2CO)ccc1O` (mixture of isomers) [SILIBININ]: the figures for the IC50 in test [1] and in [11] were 1.7 µM and 12.1 µM, respectively. Moreover, the Ki came to 0.7 µM in [2], 0.7 µM in test [4], 8.5 µM in test [9] and 8.4 µM in test [12]. Besides, the inhibition entry in test [3] and in test [6] was “Dose-dependent effect” each time. For the same molecule, in [5], the KA stood at 6.16 ×10⁶ L/mol. Also, the Kis in test [7] turned out to be 27.6 µM; in [10], 3.7 µM. Moreover, the KSV in test [8] worked out at 0.261 ×10⁴ L/mol.
`COc1cc([C@H]2Oc3ccc([C@H]4Oc5cc(O)cc(O)c5C(=O)[C@@H]4O)cc3O[C@@H]2CO)ccc1O` [ISOSILYBIN A]: the half-maximal inhibitory concentration (IC50) in test [1] came out at 2.1 µM; in test [11], 16.7 µM. Besides, the Ki in test [2] is 1.1 µM; in [4], 1.1 µM; in [9], 12.4 µM; in [12] it was 12.3 µM. Besides, the inhibition entry in test [3] and in test [6] was “Dose-dependent effect” in each case. In test [15], the TIME stood at 0.0833 h. Also, in test [5], the KA is 6.31 ×10⁶ L/mol. In addition, the inhibition entry in test [16] is “Active”. Also, the Kis was 29.5 µM in [7] and 3.2 µM in [10]. Also, the Activity entry in test [13] is “Dose-dependent effect”. Further, the KSV in [8] amounted to 0.267 ×10⁴ L/mol.
Turning to `COc1cc([C@H]2Oc3cc(O)cc(O)c3C(=O)[C@@H]2O)ccc1O`, the IC50 in test [1] was determined as 51.2 µM; in [11] it was 150 µM. The inhibition constant Ki in [17] came out at 73.4 µM; in [14] it was 20.5 µM. For the same molecule, the KA in [5] was 0.849 ×10⁶ L/mol. In [8], the KSV was determined as 0.0222 ×10⁴ L/mol.
As to `COc1cc([C@@H]2[C@H]3CO[C@@]4(O)C(=O)[C@@H]2C=C([C@H]2Oc5cc(O)cc(O)c5C(=O)[C@@H]2O)[C@@H]34)ccc1O` [SILIDIANIN], the IC50 is 2.6 µM in test [1] and 16.5 µM in [11]. The Ki was 2.1 µM in [2], 1.7 µM in test [4], 14.9 µM in [9] and 15 µM in [12]. Also, the inhibition entry in test [3] and in test [6] was “Dose-dependent effect” throughout. In addition, in [5], the KA came out at 5.81 ×10⁶ L/mol. Moreover, the Kis in test [7] amounted to 90.8 µM; in test [10], 2.3 µM. The KSV in test [8] turned out to be 0.193 ×10⁴ L/mol.
With `COc1cc([C@@H]2Oc3c(O)cc(-c4oc5cc(O)cc(O)c5c(=O)c4O)cc3[C@H]2CO)ccc1O`, the concentration for half-maximal inhibition (IC50) in test [1] stood at 7.6 µM; in test [11], 35.9 µM. The inhibitory constant (Ki) in test [2] is 4.6 µM; in test [4], 4.7 µM; in test [9], 36.7 µM; in [12], 38.3 µM. Moreover, the inhibition result in test [3] and in [6] was “Dose-dependent effect” throughout. The KA in test [5] came to 2.25 ×10⁶ L/mol. Moreover, the Kis in test [7] was 146 µM; in [10], 6.4 µM. Moreover, the KSV in test [8] worked out at 0.0634 ×10⁴ L/mol.
